The source of these data is US11820762B2, “Compounds as potential therapeutic agents targeting various neurodegenerative diseases” (The Hong Kong University of Science and Technology, priority 2020, dated 2023).

“Also recorded” adds a separate entry of the source. Where two headings read alike, the source gives them in different places.

For one data set, the system named is red blood cells. The data set can be described thus: Hemolysis assay. To be noted: 250, 500, 1000 μg/mL; 2% rabbit red blood cells; 37° C., 1 hour. Format: cell-based. The method, then: Hemolytic activity was determined with 2% fresh red blood cells from a healthy rabbit. Blood cells were obtained and washed with PBS buffer four to five times and centrifuged at 1500 rpm for 10 mins until the upper phase became clear. Compounds were diluted with PBS to final concentrations of 1000, 500, 250 μg/mL, added to the same volume of 2% red blood cells and incubated at 37° C. for 1 hour. Samples were centrifuged at 10,000 rpm for 5 mins, and supernatants were added into 96-well plates and measured at 570 nm with a Thermo Scientific Multiskan FC multiplate photometer (Thermo Scientific™, USA). An aliquot of 10% Triton X-100 was used as the positive control, and 1% DMSO dissolved in PBS was used as the negative control.

The test system of data set [1] is DNA (G4C2)4 (SEQ ID NO: 5) G4. The data set can be described thus: 1D 1H-NMR titration of DNA (G4C2)4 G4. To be noted: for binding affinity order according to NMR titration: DNA (G4C2)4 G-quadruplex and hnRNP H, FIGS. 3C-3E; for binding to DNA (G4C2)4 G4 by NMR titration: G4:compound ratio 1:1 to 1:10. Format: binding. As to the method:
Single […] were purchased from Integrated DNA Technologies (IDT) and Takara. Single-strand DNA/RNA sample at 100 μM was then annealed by heating up to 95° C. for 15 mins, and slowly cooled to room temperature in the annealing buffer (70 mM KCl, 20 mM potassium phosphate (pH 7.0)) for overnight. The final NMR samples contained 0.1 mM DNA or RNA in 70 mM KCl and 20 mM potassium phosphate buffer (pH 7.0).
The 1D ^1H-NMR spectra were performed at 25° C. All compounds were dissolved in isotope-labeled d6-DMSO (Sigma-Aldrich) at about 50 mM concentration, working as stock solutions. To avoid chemical shift changes of DNA/RNA G4 resulted from d6-DMSO addition, […] d6-DMSO was added into 500 μL of 0.1 mM DNA/RNA G4 solution in the NMR buffer (20 mM potassium phosphate buffer and 70 mM KCl, pH 7.0, 10% D2O) and then 1D ^1H-NMR spectrum was recorded as a reference. During NMR titration experiments of adding each compound into the DNA/RNA G4 solution, the maximal volume of 10 μL of each compound in d6-DMSO solution was regarded as a final data point.
We next confirmed the binding of cA and DNA (G4C2)4 (SEQ ID NO: 5) G4 by NMR titration experiments.

For data set [2], the system named is differentiated HT22 cells. The data set can be described thus: cells. It is filed as cell-based. Particulars: for EC50: Mus musculus, HT-22, differentiated HT22 cells pre-treated with 5 mM L-glutamate, cell viability; for neuroprotective activity compared with cA: comparison of analogs. The method, then:
(§1) Cytotoxicity of compounds was tested by MTT assay. Cells were grown in DMEM (Gibco) with 10% FBS and 1% penicillin-streptomycin at 37° C. with 5% CO2. In total, 5×10^3 cells were seeded in each well of 96-well plates and cultured for 24 hours. Then cells were treated with different concentrations of compounds dissolved in DMSO for another 24 hours. After incubating with 20 μl of MTT (5 mg/mL) for each well at 37° C. for another four hours, 100 μl of DMSO was added to dissolve formazan. Absorbance was measured using a Multiskan™ FC microplate photometer at 570 nm. IC50 data were analyzed with GraphPad Prism software.
Cultured HT22 cells were differentiated by applying 10 μM retinoic acid (Sigma-Aldrich, R2625-50MG) and 500 μM cAMP (Sigma-Aldrich, A6885) in DEME medium supplied with 0.5% FBS (differentiation medium) and incubated 48 hours before adding other treatments. 5 mM L-glutamate acid was applied to the original differentiation medium for further 24-hours incubation. Cell viability was measured by MTT assay described above.
In the C9orf72 associated ALS/FTD, the G4C2 HRE make motor neurons more vulnerable to aberrant neuron excitation^43. Meanwhile, the hyperactivation of glutamate receptors drives a toxic level of neuronal activity, promoting the non-ATG (RAN) translation of G4C2 repeat-associated DPR proteins^44, leading to further toxicity of motor neurons. Thus, we would like to test our compounds in a glutamate (E)-induced excitotoxicity cell model.

A further data set addresses T1, RRM domain of hnRNP H (Homo sapiens, UniProt P31943).
T1 construct: HSQC spectra of RRM1/2 of hnRNP H; hexahistidine (cleaved yes); made in house; host or cells: Escherichia coli BL21(DE3), pET-28a(+)
T1 sequence (P31943 1-194 limits assumed): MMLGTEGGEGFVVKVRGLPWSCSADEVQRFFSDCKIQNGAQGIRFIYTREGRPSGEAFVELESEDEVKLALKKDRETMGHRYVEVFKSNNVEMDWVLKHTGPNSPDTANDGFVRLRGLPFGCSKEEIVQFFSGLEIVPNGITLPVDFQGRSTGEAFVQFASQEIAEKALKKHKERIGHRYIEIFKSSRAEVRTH
The data set can be described thus: 1H-15N HSQC NMR titration of hnRNP H RRM domain. It is filed as binding. Particulars: ratios 1:5 and 1:10. The method, then:
The coding sequence of the RRM domain of hnRNP H/F, or human Orc6 was inserted into the expression vector pET-28a(+) (Novagen). Protein was expressed in Escherichia coli BL21(DE3) at 37° C. for 5 hours. Cell lysates were subject to affinity purification with nickel-nitrilotriacetic acid resin (Qiagen) followed by cleavage of hexahistidine tag with Protease 3C enzyme. Products were further purified on a Superdex 75 column (GE Healthcare). For NMR studies, uniformly ^15N labeled protein was expressed and purified as described above, except for cells grown in M9 medium containing 100% ^15N enriched ammonium chloride (Cambridge Isotopes) and d-glucose.
Titration experiments were performed by recording a series of 2D ^15N-HSQC spectra on uniformly ^15N-labeled RRM domain (˜0.1 mM) in the presence of different amounts of DNA/RNA or compounds at 25° C. Protein samples and stock solutions of DNA/RNA were all prepared in 20 mM potassium phosphate buffer and 70 mM KCl, pH 7.0, 10% D2O. All compounds were dissolved in isotope-labeled d6-DMSO (Sigma-Aldrich) at about 50 mM concentration, working as stock solutions. To avoid chemical shift changes of protein samples resulted from d6-DMSO addition, 10 μL d6-DMSO was added into 500 μL of 0.1 mM protein solution in the NMR buffer (20 mM potassium phosphate buffer and 70 mM KCl, pH 7.0, 10% D2O) and then the 2D HSQC was recorded as a reference.
In this scenario, specific RNA-binding proteins (RBPs), like hnRNP H, are recruited by the RNA foci, resulting in RNA processing impairment and further cytotoxicity to the central nervous system^30,36,37. Therefore, we tested the binding possibility of cA with the RRM domain of hnRNP H by NMR titration. […] Intriguingly, the DNA (G4C2)4 (SEQ ID NO: 5) G4 was also shown a potent binding affinity to the RRM domain of hnRNP H (FIG. 4C).

The subject of data set [3] is Neuro2a cells transfected with DNA (G4C2)29. The data set can be described thus: Cell viability of Neuro2a cells transfected with DNA (G4C2)29 (C9orf72 ALS/FTD cell model). To be noted: for effect on cell viability of (G4C2)29-transfected Neuro2a cells: 1 μg/ml; for viability at 1 µg/mL: Mus musculus, N2a, read-out: cell viability in (G4C2)29-cells. It is filed as cell-based. The method, then: as §1
DNA constructs were transfected to neuronal Neuro2a cell lines using Lipofectamine 2000 (Thermo Fisher Scientific, 11668019). 4 to 6 hours after transfection, fresh culture medium was used to replace the transfection medium, and cells were incubated for another 48 hours to allow recovery and construct expression.

With `CC(=O)Cc1cc2c(c(O)c1C(=O)O)-c1c(c(O)c3oc4c(O[C@@H]5OC(C(=O)O)=C[C@H](O)[C@H]5O)cccc4c(=O)c3c1O)CC2` [cA, chrexanthomycin A], the hemolytic activity result in the data set with red blood cells is listed as “no hemolytic activity even at the concentration of 1000 μg/ml; also recorded: no hemolytic activity with a pretty high concentration of 1 mg/ml”. Moreover, in data set [1], the “binding affinity order according to NMR titration” value (shortened to “binding affinity order according”) was “cC>cA>cB>cF” and the “binding to DNA (G4C2)4 G4 by NMR titration” value (“binding to DNA (G4C2)4 G4” below) was “apparent chemical shift changes”. The EC50 in data set [2] worked out at 0.31 µM. Besides, the “binding to RRM domain of hnRNP H by NMR titration” value (shortened to “binding to RRM domain of hnRNP H”) at RRM domain of hnRNP H is listed as “bound to the RRM domain of hnRNP H”. The “effect on cell viability of (G4C2)29-transfected Neuro2a cells” value (“effect on cell viability” below) in data set [3] was “partially increased the cell viability”. In addition, in data set [3] (1 μg/mL, model group 20%), the viability at 1 µg/mL amounted to 30%.

On to `COc1c2c(c(O)c3c(=O)c4cccc(O[C@@H]5OC(C(=O)O)=C[C@H](O)[C@H]5O)c4oc13)-c1c(cc(CC(C)=O)c(C(=O)O)c1O)CC2` [cB, chrexanthomycin B], for which, in the data set with red blood cells, the hemolytic activity result is “significant hemolytic activity starting at 500 μg/ml; also recorded: significant hemolytic activity starting at 0.5 mg/ml”. For the same molecule, in data set [1], the “binding affinity order according” value is “cC>cA>cB>cF” and the “binding to DNA (G4C2)4 G4” value was “proved to bind”. Also, in data set [2], the “cytotoxicity (structure-activity summary)” value is “potent cytotoxicity”, the EC50 was determined as 11.1 µM and the “neuroprotective activity compared with cA” value is “worse than cA”. Also, the “binding to RRM domain of hnRNP H” value on RRM domain of hnRNP H is given as “much weaker bindings”. For the same molecule, in data set [3], the “effect on cell viability” value was “made it worse; also recorded: even worse than the model group”.

Consider `CC(=O)Cc1cc2c(c(O)c1C(=O)O)-c1c(c(O)c3oc4c(O[C@@H]5O[C@H](C(=O)O)[C@@H](O)[C@H](O)[C@H]5O)cccc4c(=O)c3c1O)CC2` [cC, chrexanthomycin C], for which the hemolytic activity result in the data set on red blood cells is listed as “no hemolytic activity even at the concentration of 1000 μg/ml; also recorded: no hemolytic activity with a pretty high concentration of 1 mg/ml”. For the same molecule, in data set [1], the “binding affinity order according” value is “cC>cA>cB>cF” and the “binding to DNA (G4C2)4 G4” value was “proved to bind”. Further, in data set [2], the “neuroprotective activity compared with cA” value is recorded as “better neuroprotective activity than cA”. For the same molecule, on RRM domain of hnRNP H, the “binding to RRM domain of hnRNP H” value is “a little bit stronger than cA”. Further, in data set [3], the “effect on cell viability” value is on record as “partially increased the cell viability” and the viability at 1 µg/mL was determined as 40%.
